For this experiment, the target named is adenosine A2a receptor (Homo sapiens, UniProt P29274). Briefly: adenosine A2a receptor agonist method of Murphree et al (Ki). As to conditions: method described by L. J. Murphree et al, Molecular Pharmacology 61, 455-462 (2002). The format is binding. The protocol:
Compounds of formula I and their pharmaceutically acceptable salts are useful as pharmaceuticals. In particular, they activate the adenosine A2a receptor activation, i.e. they act as A2a receptor agonists.
Compounds of the Examples hereinbelow have K; values below 1.0 μM in the above method. For example, the compounds of Examples 6, 10 and 15 have Ki values of 0.004, 0.005, and 0.009 μM respectively.

Counter-ions that a name gives are not always drawn.

By Ki is commonly meant the equilibrium dissociation constant of an inhibitor or competing ligand from its target. High values mean weaker binding, low ones tighter binding.

Chain of adenosine A2a receptor (P29274 whole entry): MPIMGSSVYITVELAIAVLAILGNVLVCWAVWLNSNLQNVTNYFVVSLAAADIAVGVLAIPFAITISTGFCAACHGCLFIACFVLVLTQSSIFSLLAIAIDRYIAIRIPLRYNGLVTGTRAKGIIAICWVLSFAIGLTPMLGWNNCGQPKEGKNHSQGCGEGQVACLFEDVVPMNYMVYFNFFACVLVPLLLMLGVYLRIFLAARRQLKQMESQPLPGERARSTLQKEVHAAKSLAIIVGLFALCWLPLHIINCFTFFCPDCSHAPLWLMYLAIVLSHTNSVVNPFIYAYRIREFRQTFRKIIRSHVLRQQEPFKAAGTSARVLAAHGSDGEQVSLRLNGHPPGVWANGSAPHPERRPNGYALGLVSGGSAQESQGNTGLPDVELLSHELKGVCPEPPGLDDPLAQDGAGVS

On to `O=C(N[C@H]1C[C@@H](n2cnc3c(NCC(c4ccccc4)c4ccccc4)nc(N[C@H]4CCNC4)nc32)[C@H](O)[C@@H]1O)C1CCC1` [Example 6, Cyclobutanecarboxylic acid {(1S,2R,3S,4R)-4-[6-(2,2-diphenyl-ethylamino)-2-((S)-pyrrolidin-3-ylamino)-purin-9-yl]-2,3-dihydroxy-cyclopentyl}-amide hydrochloride], for which the Ki came out at 4 nM.

`O=C(Nc1cccnc1)NC1CCN(c2nc(NCC(c3ccccc3)c3ccccc3)c3ncn(C4CC(NC(=O)C5CCC5)C(O)C4O)c3n2)C1` [Example 10, Cyclobutanecarboxylic acid ((1S,2R,3S,4R)-4-{6-(2,2-diphenyl-ethylamino)-2-[(R)-3-(3-pyridin-3-yl-ureido)-pyrrolidin-1-yl]-purin-9-y}-2,3-dihydroxy-cyclopentyl)-amide] displayed a Ki of 5 nM.

With `O=C(N[C@H]1C[C@@H](n2cnc3c(NCC(c4ccccc4)c4ccccc4)nc(N[C@@H]4CCN(C(=O)NC5CCN(c6ccccn6)CC5)C4)nc32)[C@H](O)[C@@H]1O)C1CCC1` [Example 15, (R)-3-[9-[(1R,2S,3R,4S)-4-(cyclobutanecarbonyl-amino)-2,3-dihydroxy-cyclopentyl]-6-(2,2-diphenyl-ethylamino)-9H-purin-2-ylamino]-pyrrolidine-1-carboxylic acid (3,4,5,6-tetrahydro-2H-[1,2′]bipyridinyl-4-yl)-amide trifluoroacetate], the inhibitory constant (Ki) is 9 nM.

(Values after patent US20090281127A1, “Organic Compounds” (priority 2006, published 2009).)
